US20130266629A1, “MEDICAL DEVICE HAVING A SURFACE COMPRISING ANTIMICROBIAL METAL” (DENTSPLY INTERNATIONAL INC., priority 2012, published 2013)

How the values were obtained:
S. sanguinis = experiment: Minimum Inhibitory Concentration, fivefold dilution, no visual growth; format: cell-based; conditions: 24 hours at 35±2° C.
Method: (§1) Streak plates and characterization by gram-staining were done. MRSA and PA01 were grown on Tryptic Soy agar (TSA) plates and S. sanguinis on horse blood plates for up to 24 hours whereas P. gingivalis was grown between 4 and 5 days on Fastidious Anaerobic agar (FAA) plates. Fivefold dilution in at least five steps of gallium nitrate (Ga(NO3)3) or bismuth chloride (BiCl3) was done. Bismuth salt had to be suspended in DMSO in order to enable salt to dissolve in culture media.
(§2) Equal amounts of bacterial solution and antimicrobial salt (in fivefold dilution) were mixed and incubated at 35±2° C.: MRSA, PA01, and S. sanguinis for 24 hours and P. gingivalis for […]. After incubation, the concentration where no visual growth could be detected was documented.

P. gingivalis = experiment: as above; format: cell-based; conditions: 35±2° C.
Method: as §1, §2

Francisella novicida = conditions: Olakanmi et al (2010); cited from earlier work
MRSA = format: cell-based, Staphylococcus aureus; conditions: 24 hours at 35±2° C.
Pseudomonas aeruginosa = conditions: Kaneko et al. (2007); cited from earlier work
PA01 = experiment: Minimum Inhibitory Concentration, fivefold dilution, no visual growth; format: cell-based, Pseudomonas aeruginosa; conditions: PA01, 24 hours at 35±2° C.
Method: as §1, §2

| SMILES | Minimum Inhibitory Concentration (MIC) (S. sanguinis) [µg/mL] | Minimum Inhibitory Concentration (MIC) (P. gingivalis) [µg/mL] | growth of Francisella novicida (Francisella novicida) | Minimum Inhibitory Concentration (MIC) (MRSA) [µg/mL] | growth of Pseudomonas aeruginosa in batch cultures (Pseudomonas aeruginosa) | Minimum Inhibitory Concentration (MIC) (PA01) [µg/mL] |
| --- | --- | --- | --- | --- | --- | --- |
| [Cl][Bi]([Cl])[Cl] [BiCl3, bismuth chloride] | 40 | 1000 |  |  |  |  |
| O=[N+]([O-])[O-].O=[N+]([O-])[O-].O=[N+]([O-])[O-].[Ga+3] [Ga(NO3)3, gallium nitrate] | 1000 | 40 | inhibited the growth | 1000 | inhibits growth | 200 |
